The record followed here is ChEMBL document CHEMBL3045288, “Pharmacophore of neonicotinoid insecticides” (J Pestic Sci, 2008).

The subject of series [1] is Periplaneta americana. As to the kind of experiment: Neuroblocking potency in Periplaneta americana (American cockroach) central nerve cord. In kind it is functional.
In series [2] the test system is Aulacophora. Description: Insecticidal activity against Aulacophora femoralis (cucurbit leaf beetle) at 20 ppm. The class given is functional.
Series [3] relates to Aulacophora. As to the kind of experiment: Insecticidal activity against Aulacophora femoralis (cucurbit leaf beetle) at 100 ppm. The class given is functional.
Series [4] relates to Myzus persicae. Description: Insecticidal activity against Myzus persicae (green peach aphid) at 100 ppm. The class given is functional.
For series [5], the system named is Myzus persicae. As to the kind of experiment: Insecticidal activity against Myzus persicae (green peach aphid) at 20 ppm. The class given is functional.
In series [6] the test system is Spodoptera litura. Description: Insecticidal activity against Spodoptera litura at 500 ppm. The class given is functional.
In series [7] the test system is Spodoptera litura. Description: Insecticidal activity against Spodoptera litura at 100 ppm. In kind it is functional.
For series [8], the system named is Myzus persicae. Description: Insecticidal activity against Myzus persicae (green peach aphid) at 500 ppm. In kind it is functional.
The test system of series [9] is Aulacophora. As to the kind of experiment: Insecticidal activity against Aulacophora femoralis (cucurbit leaf beetle) at 500 ppm. The class given is functional.
A short description of series [10]: Lipophilicity, log P of the compound. In kind it is physicochemical. The note with it: octanol/water.
Series [11] deals with Periplaneta americana. Description: Insecticidal activity against Periplaneta americana (American cockroach) central nerve cord. In kind it is functional.
For series [12], the system named is Spodoptera litura. As to the kind of experiment: Insecticidal activity against Spodoptera litura at 20 ppm. The class given is functional.

Turning to `O=[N+]([O-])/C=C1\NCCN1Cc1ccc(Cl)nc1`, in the series on Periplaneta americana [1], the “log(1/BC)” value amounted to 5.02.
In the case of `O=[N+]([O-])/N=C1\N(CCCF)CCN1Cc1ccc(Cl)nc1`, the Activity with Aulacophora [2] turned out to be 100%; in the series with Aulacophora [3], 100%; in the series on Myzus persicae [4], 100%; in the series on Myzus persicae [5], 100%; in the series with Spodoptera litura [6] it was 0%.
Turning to `O=[N+]([O-])/N=C1\NCCN1CCCCF`, the Activity in the series on Myzus persicae [4] is on record as 60%; with Myzus persicae [5] it was 0%; in the series on Spodoptera litura [7] it was 0%; in the series with Spodoptera litura [6], 20%; in the series with Myzus persicae [8] it was 97%.
As to `O=[N+]([O-])/N=C1\NCCN1CCCF`, the Activity with Aulacophora [2] worked out at 0%; in the series with Aulacophora [3], 100%; in the series with Myzus persicae [4] it was 90%; in the series with Myzus persicae [5], 60%; with Spodoptera litura [7] it was 20%; in the series on Aulacophora [9], 100%. The values for the Activity in the series with Spodoptera litura [6] and with Myzus persicae [8] were 100% and 97%, respectively.
In the case of `O=[N+]([O-])/N=C1\NCCN1CCCCl`, the Activity in the series on Aulacophora [2] was determined as 50%; in the series with Aulacophora [3] it was 100%; in the series on Myzus persicae [4], 0%; in the series with Aulacophora [9], 100%; with Spodoptera litura [6] it was 0%; in the series on Myzus persicae [8], 97%.
`O=[N+]([O-])/N=C1\NCCN1CCF`: the Activity with Aulacophora [9] was determined as 0%; in the series with Spodoptera litura [6], 0%; with Myzus persicae [8] it was 60%.
For the compound `CCCN1CCN/C1=N\[N+](=O)[O-]`, the results for the Activity in the series on Aulacophora [9], with Spodoptera litura [6] and in the series on Myzus persicae [8] were 0%, 0% and 60%, respectively.
For `O=[N+]([O-])/N=C1\NCCCN1Cc1ccc(Cl)nc1`, the “log(1/BC)” value in the series with Periplaneta americana [1] was 5.35.
As to `O=[N+]([O-])/C=C1\SCCN1Cc1ccc(Cl)nc1`, the “log(1/BC)” value with Periplaneta americana [1] is 6.19.
Still for that read-out and setting: as for `CN1CCN(Cc2ccc(Cl)nc2)/C1=N/[N+](=O)[O-]`, the figure is 3.81; as for `O=[N+]([O-])/N=c1\ccccn1Cc1ccc(Cl)nc1`, 5.09; as for `O=[N+]([O-])/N=c1\ccccn1Cc1cnc(Cl)s1`, 5.75.
In the case of `O=[N+]([O-])/C=C1\CCCN1Cc1ccc(Cl)nc1`, in the series with Periplaneta americana [1], the “log(1/BC)” value worked out at 6.43.
Take `O=[N+]([O-])/C=C1\NCCN1Cc1cnc(Cl)s1`: the “log(1/BC)” value in the series with Periplaneta americana [1] stood at 5.73.
Still for that read-out and setting: as for `O=[N+]([O-])/N=C1\SCCN1Cc1cnc(Cl)s1`, the figure is 6.31.
Turning to `O=[N+]([O-])/C=C1\CCCN1Cc1cnc(Cl)s1`, the logP in [10] was determined as 0.64. Moreover, in the series on Periplaneta americana [1], the “log(1/BC)” value is listed as 6.
Turning to `CN1CCN(Cc2ccc(Cl)nc2)/C1=C/[N+](=O)[O-]`, in the series on Periplaneta americana [1], the “log(1/BC)” value turned out to be 3.84.
Same read-out and setting: as for `O=[N+]([O-])/N=c1\[nH]ccn1Cc1cnc(Cl)s1`, the figure is 4.61; as for `O=[N+]([O-])/N=c1\sccn1Cc1cnc(Cl)s1`, 5.79.
As to `O=[N+]([O-])/N=C1/N(CCCCN2CCN(Cc3ccc(Cl)nc3)/C2=N/[N+](=O)[O-])CCN1Cc1ccc(Cl)nc1`, the Activity with Periplaneta americana [11] is 11 nmol.
Compound `O=[N+]([O-])/N=C1/N(CCCCCCCCCN2CCN(Cc3ccc(Cl)nc3)/C2=N/[N+](=O)[O-])CCN1Cc1ccc(Cl)nc1` returned an Activity in the series on Periplaneta americana [11] of 2.8 nmol.
As for `O=[N+]([O-])/N=C1/N(CCCCCN2CCN(Cc3ccc(Cl)nc3)/C2=N/[N+](=O)[O-])CCN1Cc1ccc(Cl)nc1`, the Activity in the series on Periplaneta americana [11] was determined as 3.9 nmol.
Same read-out and setting: as for `O=[N+]([O-])/N=C1/N(CCCN2CCN(Cc3ccc(Cl)nc3)/C2=N/[N+](=O)[O-])CCN1Cc1ccc(Cl)nc1`, the figure is 4.9 nmol; as for `O=[N+]([O-])/N=C1/N(CCCCCCCCCCN2CCN(Cc3ccc(Cl)nc3)/C2=N/[N+](=O)[O-])CCN1Cc1ccc(Cl)nc1`, 3.7 nmol.
For the compound `O=[N+]([O-])/N=C1\NCCN1CCC(F)(F)F`, the Activity is listed as 50% in the series with Aulacophora [3], 100% in the series with Aulacophora [9], 30% in the series with Spodoptera litura [6] and 0% in the series with Myzus persicae [8].
As for `O=[N+]([O-])/N=C1\NCCN1CCC(F)=C(F)F`, the Activity in the series on Aulacophora [9], with Spodoptera litura [6] and in the series on Myzus persicae [8] was 0% throughout.
In the series with Periplaneta americana [11], `O=[N+]([O-])/N=C1\N(CCN2CCN(Cc3ccc(Cl)nc3)/C2=N\[N+](=O)[O-])CCN1Cc1ccc(Cl)nc1` came in with an Activity of 8.3 nmol.
Same read-out and setting: as for `O=[N+]([O-])/N=C1/N(CCCCCCCCN2CCN(Cc3ccc(Cl)nc3)/C2=N/[N+](=O)[O-])CCN1Cc1ccc(Cl)nc1`, the figure is 4.5 nmol.
For `O=[N+]([O-])/N=c1\sccn1Cc1ccc(Cl)nc1`, the “log(1/BC)” value with Periplaneta americana [1] was found to be 5.68.
Regarding `O=[N+]([O-])Nc1nccn1Cc1ccc(Cl)nc1` [DEHYDROIMIDACLOPRID], the “log(1/BC)” value with Periplaneta americana [1] came out at 4.31.
The compound `O=[N+]([O-])/N=C1/N(CCCCCCCN2CCN(Cc3ccc(Cl)nc3)/C2=N/[N+](=O)[O-])CCN1Cc1ccc(Cl)nc1` [Heptamethylene 1,7-bis-imadacloprid] displayed an Activity in the series with Periplaneta americana [11] of 2.8 nmol.
Still for that read-out and setting: as for `O=[N+]([O-])/N=C1/N(CCCCCCN2CCN(Cc3ccc(Cl)nc3)/C2=N/[N+](=O)[O-])CCN1Cc1ccc(Cl)nc1` [Hexamethylene 1,6-bis-imadacloprid], the figure is 2.2 nmol.
Regarding `O=[N+]([O-])/N=C1\NCCN1Cc1ccc(Cl)nc1` [IMIDACLOPRID], the Activity came to 2.5 nmol in the series on Periplaneta americana [11]; 100% in the series with Aulacophora [2]; 40% in the series on Spodoptera litura [12]; 100% with Aulacophora [3]; 100% in the series with Myzus persicae [4]; 100% in the series with Myzus persicae [5]. Further, the Activity in the series with Spodoptera litura [7] is 80%; in the series on Aulacophora [9] it was 100%; with Spodoptera litura [6], 100%; with Myzus persicae [8], 100%. In addition, the “log(1/BC)” value in the series with Periplaneta americana [1] was determined as 5.64.
As for `O=[N+]([O-])/N=C1\NCCN1Cc1cnc(Cl)s1` [IMIDACLOTHIZ], in the series on Periplaneta americana [1], the “log(1/BC)” value came to 5.97.
